Patent US20140288074A1, “FUNGICIDAL PYRAZOLES” (E I DU PONT DE NEMOURS AND COMPANY, priority 2013, published 2014)

Key:
Type in all cases: in vivo
[1] = tested on: Puccinia recondita f. sp. tritici; experiment: Test F: preventive spray on wheat seedlings, wheat leaf rust, visual disease rating; settings: 200 ppm test suspension, Puccinia recondita f. sp. tritici inoculated the day after spraying; for pest or weed control at 200 ppm: 168 h
Protocol: General protocol for preparing test suspensions for Tests A-G: the test compounds were first dissolved in acetone in an amount equal to 3% of the final volume and then suspended at the desired concentration (in ppm) in acetone and purified water (50/50 mix by volume) containing 250 ppm of the surfactant Trem® 014 (polyhydric alcohol esters). The resulting test suspensions were then used in Tests A-G. Each test was conducted in triplicate, and the results were averaged. Spraying a 200 ppm test suspension to the point of run-off on the test plants was the equivalent of a rate of 800 g/ha. Unless otherwise indicated, the rating values indicate a 200 ppm test suspension was used. (An asterisk “*” next to the rating value indicates a 40 ppm test suspension was used.) The test suspension was sprayed to the point of run-off on wheat seedlings. The following day the seedlings were inoculated with a spore suspension of Puccinia recondita f. sp. tritici (the causal agent of wheat leaf rust) and incubated in a saturated atmosphere at 20° C. for 24 h, and then moved to a growth chamber at 20° C. for 6 days, after which time visual disease ratings were made. Results for Tests A-G are given in Table A. In the Table, a rating of 100 indicates 100% disease control and a rating of 0 indicates no disease control (relative to the controls). A hyphen (-) indicates no test results.

[2] = tested on: Blumeria graminis f. sp. tritici; experiment: Test G: preventive spray on wheat seedlings, wheat powdery mildew, visual disease rating;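 for all read-outs here: rated 8 days after spore dust inoculation at 20 °C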; settings: 200 ppm test suspension, Blumeria graminis f. sp. tritici inoculated the day after spraying; for pest or weed control at 200 ppm: 192 h
Protocol: General protocol for preparing test suspensions for Tests A-G: the test compounds were first dissolved in acetone in an amount equal to 3% of the final volume and then suspended at the desired concentration (in ppm) in acetone and purified water (50/50 mix by volume) containing 250 ppm of the surfactant Trem® 014 (polyhydric alcohol esters). The resulting test suspensions were then used in Tests A-G. Each test was conducted in triplicate, and the results were averaged. Spraying a 200 ppm test suspension to the point of run-off on the test plants was the equivalent of a rate of 800 g/ha. Unless otherwise indicated, the rating values indicate a 200 ppm test suspension was used. (An asterisk “*” next to the rating value indicates a 40 ppm test suspension was used.) The test suspension was sprayed to the point of run-off on wheat seedlings. The following day the seedlings were inoculated with a spore dust of Blumeria graminis f. sp. tritici (also known as Erysiphe graminis f. sp. tritici, the causal agent of wheat powdery mildew) and incubated in a growth chamber at 20° C. for 8 days, after which time visual disease ratings were made. Results for Tests A-G are given in Table A. In the Table, a rating of 100 indicates 100% disease control and a rating of 0 indicates no disease control (relative to the controls). A hyphen (-) indicates no test results.

Septoria tritici = experiment: Test D: preventive spray on wheat seedlings, wheat leaf blotch, visual disease rating; settings: 200 ppm test suspension, Septoria tritici inoculated the day after spraying; for pest or weed control at 200 ppm: Zymoseptoria tritici, 504 h
Protocol: General protocol for preparing test suspensions for Tests A-G: the test compounds were first dissolved in acetone in an amount equal to 3% of the final volume and then suspended at the desired concentration (in ppm) in acetone and purified water (50/50 mix by volume) containing 250 ppm of the surfactant Trem® 014 (polyhydric alcohol esters). The resulting test suspensions were then used in Tests A-G. Each test was conducted in triplicate, and the results were averaged. Spraying a 200 ppm test suspension to the point of run-off on the test plants was the equivalent of a rate of 800 g/ha. Unless otherwise indicated, the rating values indicate a 200 ppm test suspension was used. (An asterisk “*” next to the rating value indicates a 40 ppm test suspension was used.) The test suspension was sprayed to the point of run-off on wheat seedlings. The following day the seedlings were inoculated with a spore suspension of Septoria tritici (the causal agent of wheat leaf blotch) and incubated in saturated atmosphere at 24° C. for 48 h. and then the seedlings were moved to a growth chamber at 20° C. for 19 additional days, after which time visual disease ratings were made. Results for Tests A-G are given in Table A. In the Table, a rating of 100 indicates 100% disease control and a rating of 0 indicates no disease control (relative to the controls). A hyphen (-) indicates no test results.

Botrytis cinerea = experiment: Test A: preventive spray on tomato seedlings, tomato Botrytis, visual disease rating; settings: 200 ppm test suspension, Botrytis cinerea inoculated the day after spraying; for pest or weed control at 200 ppm: 120 h
Protocol: General protocol for preparing test suspensions for Tests A-G: the test compounds were first dissolved in acetone in an amount equal to 3% of the final volume and then suspended at the desired concentration (in ppm) in acetone and purified water (50/50 mix by volume) containing 250 ppm of the surfactant Trem® 014 (polyhydric alcohol esters). The resulting test suspensions were then used in Tests A-G. Each test was conducted in triplicate, and the results were averaged. Spraying a 200 ppm test suspension to the point of run-off on the test plants was the equivalent of a rate of 800 g/ha. Unless otherwise indicated, the rating values indicate a 200 ppm test suspension was used. (An asterisk “*” next to the rating value indicates a 40 ppm test suspension was used.) The test suspension was sprayed to the point of run-off on tomato seedlings. The following day the seedlings were inoculated with a spore suspension of Botrytis cinerea (the causal agent of tomato Botrytis) and incubated in saturated atmosphere at 20° C. for 48 h, and then moved to a growth chamber at 24° C. for 3 additional days, after which time visual disease ratings were made. Results for Tests A-G are given in Table A. In the Table, a rating of 100 indicates 100% disease control and a rating of 0 indicates no disease control (relative to the controls). A hyphen (-) indicates no test results.

Septoria nodorum = experiment: Test C: preventive spray on wheat seedlings, Septoria glume blotch, visual disease rating; settings: 200 ppm test suspension, Septoria nodorum inoculated the day after spraying; for pest or weed control at 200 ppm: Parastagonospora nodorum, 264 h
Protocol: General protocol for preparing test suspensions for Tests A-G: the test compounds were first dissolved in acetone in an amount equal to 3% of the final volume and then suspended at the desired concentration (in ppm) in acetone and purified water (50/50 mix by volume) containing 250 ppm of the surfactant Trem® 014 (polyhydric alcohol esters). The resulting test suspensions were then used in Tests A-G. Each test was conducted in triplicate, and the results were averaged. Spraying a 200 ppm test suspension to the point of run-off on the test plants was the equivalent of a rate of 800 g/ha. Unless otherwise indicated, the rating values indicate a 200 ppm test suspension was used. (An asterisk “*” next to the rating value indicates a 40 ppm test suspension was used.) The test suspension was sprayed to the point of run-off on wheat seedlings. The following day the seedlings were inoculated with a spore suspension of Septoria nodorum (the causal agent of Septoria glume blotch) and incubated in a saturated atmosphere at 24° C. for 48 h, and then moved to a growth chamber at 20° C. for 9 days, after which time visual disease ratings were made. Results for Tests A-G are given in Table A. In the Table, a rating of 100 indicates 100% disease control and a rating of 0 indicates no disease control (relative to the controls). A hyphen (-) indicates no test results.

Alternaria solani = experiment: Test B: preventive spray on tomato seedlings, tomato early blight, visual disease rating; settings: 200 ppm test suspension, Alternaria solani inoculated the day after spraying
Protocol: General protocol for preparing test suspensions for Tests A-G: the test compounds were first dissolved in acetone in an amount equal to 3% of the final volume and then suspended at the desired concentration (in ppm) in acetone and purified water (50/50 mix by volume) containing 250 ppm of the surfactant Trem® 014 (polyhydric alcohol esters). The resulting test suspensions were then used in Tests A-G. Each test was conducted in triplicate, and the results were averaged. Spraying a 200 ppm test suspension to the point of run-off on the test plants was the equivalent of a rate of 800 g/ha. Unless otherwise indicated, the rating values indicate a 200 ppm test suspension was used. (An asterisk “*” next to the rating value indicates a 40 ppm test suspension was used.) The test suspension was sprayed to the point of run-off on tomato seedlings. The following day the seedlings were inoculated with a spore suspension of Alternaria solani (the causal agent of tomato early blight) and incubated in a saturated atmosphere at 27° C. for 48 h, and then moved to a growth chamber at 20° C. for 5 days, after which time visual disease ratings were made. Results for Tests A-G are given in Table A. In the Table, a rating of 100 indicates 100% disease control and a rating of 0 indicates no disease control (relative to the controls). A hyphen (-) indicates no test results.

Cc1nn(C)c(NCC(C)C)c1-c1ccc(F)cc1Br [Compound 44]
Test F rating (disease control) [1]: 90%
Test G rating (disease control) [2]: 0%
Test D rating (disease control) (Septoria tritici): 0%
Test A rating (disease control) (Botrytis cinerea): 0%
Test C rating (disease control) (Septoria nodorum): 59%

CCN(CC)c1c(-c2c(F)cc(F)cc2F)c(C)nn1C [Compound 50]
Test F rating (disease control) [1]: 74%
Test G rating (disease control) [2]: 0%
Test D rating (disease control) (Septoria tritici): 0%
Test A rating (disease control) (Botrytis cinerea): 38%
Test C rating (disease control) (Septoria nodorum): 0%

Cc1nn(C)c(OCC(C)C)c1-c1c(F)cc(F)cc1F [Compound 22, 1,3-dimethyl-5-(2-methylpropoxy)-4-(2,4,6-trifluorophenyl)-1H-pyrazole]
pest or weed control at 200 ppm [1]: 17%
pest or weed control at 200 ppm [2]: 0%
pest or weed control at 200 ppm (Septoria tritici): 0%
pest or weed control at 200 ppm (Botrytis cinerea): 0%
pest or weed control at 200 ppm (Septoria nodorum): 0%

Cc1nn(C)c(N2CCCCC2)c1-c1ccc(F)cc1Cl [Compound 41]
Test F rating (disease control) [1]: 44%
Test G rating (disease control) [2]: 0%
Test D rating (disease control) (Septoria tritici): 88%
Test A rating (disease control) (Botrytis cinerea): 99%
Test C rating (disease control) (Septoria nodorum): 0%

CCC(C)C(N)c1c(-c2c(F)cccc2Cl)c(C)nn1C (stereo not drawn) [Compound 33, 4-(2-chloro-6-fluorophenyl)-1,3-dimethyl-α-(1-methylpropyl)-1H-pyrazole-5-methanamine]
pest or weed control at 200 ppm [1]: 80%
pest or weed control at 200 ppm [2]: 56%
pest or weed control at 200 ppm (Septoria tritici): 92%
pest or weed control at 200 ppm (Botrytis cinerea): 90%
pest or weed control at 200 ppm (Septoria nodorum): 98%

Cc1nn(C)c(C(N)C(C)C)c1-c1c(F)cccc1Cl (centres unmarked) [Compound 32]
Test F rating (disease control) [1]: 96%
Test G rating (disease control) [2]: 0%
Test D rating (disease control) (Septoria tritici): 94%
Test A rating (disease control) (Botrytis cinerea): 0%
Test C rating (disease control) (Septoria nodorum): 100%

Cc1nn(C)c(NC(C)C)c1-c1c(F)cc(F)cc1F [Compound 49]
Test F rating (disease control) [1]: 98%
Test G rating (disease control) [2]: 0%
Test D rating (disease control) (Septoria tritici): 0%
Test A rating (disease control) (Botrytis cinerea): 40%
Test C rating (disease control) (Septoria nodorum): 98%

COCCOc1c(-c2ccc(F)cc2Cl)c(C)nn1C [Compound 30, 4-(2-chloro-4-fluorophenyl)-5-(2-methoxyethoxy)-1,3-dimethyl-1H-pyrazole]
pest or weed control at 200 ppm [1]: 58%
pest or weed control at 200 ppm [2]: 0%
pest or weed control at 200 ppm (Septoria tritici): 85%
pest or weed control at 200 ppm (Botrytis cinerea): 91%
pest or weed control at 200 ppm (Septoria nodorum): 0%

COCCN(CCOC)c1c(-c2ccc(F)cc2Br)c(C)nn1C [Compound 46]
Test F rating (disease control) [1]: 68%
Test G rating (disease control) [2]: 13%
Test D rating (disease control) (Septoria tritici): 0%
Test A rating (disease control) (Botrytis cinerea): 0%
Test C rating (disease control) (Septoria nodorum): 86%

Cc1nn(C)c(NC(C)C)c1-c1ccc(F)cc1F [Compound 1]
Test F rating (disease control) [1]: 0%
Test G rating (disease control) [2]: 0%
Test D rating (disease control) (Septoria tritici): 0%
Test B rating (disease control) (Alternaria solani): 0%
Test A rating (disease control) (Botrytis cinerea): 65%
Test C rating (disease control) (Septoria nodorum): 0%

Cc1nn(C)c(C(O)C(C)C)c1-c1c(F)cccc1Cl (stereo not drawn) [Compound 24, 4-(2-chloro-6-fluorophenyl)-1,3-dimethyl-α-(1-methylethyl)-1H-pyrazole-5-methanol]
pest or weed control at 200 ppm [1]: 99%
pest or weed control at 200 ppm [2]: 97%
pest or weed control at 200 ppm (Septoria tritici): 91%
pest or weed control at 200 ppm (Botrytis cinerea): 99%
pest or weed control at 200 ppm (Septoria nodorum): 98%

Cc1nn(C)c(N2CCCCC2C)c1-c1ccc(F)cc1Cl (centres unmarked) [Compound 43]
Test F rating (disease control) [1]: 19%
Test G rating (disease control) [2]: 43%
Test D rating (disease control) (Septoria tritici): 36%
Test A rating (disease control) (Botrytis cinerea): 73%
Test C rating (disease control) (Septoria nodorum): 0%

CCN(CC)c1c(-c2ccc(F)cc2Br)c(C)nn1C [Compound 39]
Test F rating (disease control) [1]: 68%
Test G rating (disease control) [2]: 0%
Test D rating (disease control) (Septoria tritici): 0%
Test A rating (disease control) (Botrytis cinerea): 0%
Test C rating (disease control) (Septoria nodorum): 64%

CCC(C)COc1c(-c2ccc(F)cc2Br)c(C)nn1C (centres unmarked) [Compound 23, 4-(2-bromo-4-fluorophenyl)-1,3-dimethyl-5-(2-methylbutoxy)-1H-pyrazole]
pest or weed control at 200 ppm [1]: 9%
pest or weed control at 200 ppm [2]: 0%
pest or weed control at 200 ppm (Septoria tritici): 95%
pest or weed control at 200 ppm (Botrytis cinerea): 70%
pest or weed control at 200 ppm (Septoria nodorum): 0%
